Source: patent US20250388565A1, “ESTROGEN RECEPTOR ALPHA DEGRADERS AND METHODS OF USE THEREOF” (Relay Therapeutics, Inc., priority 2022, published 2025)

These compounds were tested against T1, ERα protein (HiBiT-tagged) in ESR1_HiBiT KI MCF7 cells (Homo sapiens, UniProt P03372) (assay: Nano Glo HiBiT Lytic Degradation Assay). Conditions: 6 hours with compound, 14-point dose response 1:3, bell-shape curve fit, half-maximal effect of first Hill model, read-out: MCF7 ESR1 HiBiT - (DC50).
T1 sequence (P03372 1-595): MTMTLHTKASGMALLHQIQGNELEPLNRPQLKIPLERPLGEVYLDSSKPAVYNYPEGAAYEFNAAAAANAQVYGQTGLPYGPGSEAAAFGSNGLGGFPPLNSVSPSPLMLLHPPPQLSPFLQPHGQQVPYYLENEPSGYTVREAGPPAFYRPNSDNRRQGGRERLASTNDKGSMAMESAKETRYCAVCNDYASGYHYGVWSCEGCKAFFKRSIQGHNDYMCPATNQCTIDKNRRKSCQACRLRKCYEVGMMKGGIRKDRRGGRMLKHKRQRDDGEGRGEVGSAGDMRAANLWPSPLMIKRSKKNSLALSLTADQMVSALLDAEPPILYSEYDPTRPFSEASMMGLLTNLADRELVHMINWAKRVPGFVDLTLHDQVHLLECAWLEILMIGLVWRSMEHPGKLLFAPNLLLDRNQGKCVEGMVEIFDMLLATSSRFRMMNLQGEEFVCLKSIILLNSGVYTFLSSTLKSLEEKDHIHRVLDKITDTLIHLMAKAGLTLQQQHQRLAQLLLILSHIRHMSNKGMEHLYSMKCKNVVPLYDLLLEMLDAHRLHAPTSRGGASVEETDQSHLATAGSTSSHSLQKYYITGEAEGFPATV
Assay type: cell-based
Procedure, shortened: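 ESR1_HiBiT knock-in MCF7 cells were seeded 24 h before treatment, then exposed to compounds for 6 h at 37° C (14-point 1:3 curves, 10 mM top stock, 0.1% DMSO final, duplicates). HiBiT-ERα was read by lytic LgBiT luminescence, background-subtracted and normalized to DMSO. DC50 was taken from the half-maximal point of the first Hill component of a bell-shaped fit.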

| DC50 | Compound |
| --- | --- |
| 5 nM | C[C@]1(c2ccccc2)OCc2cc(O)ccc2[C@@H]1c1ccc(N2CCC(CN3CCN(c4ccc5c(c4)CN([C@H]4CCC(=O)NC4=O)C5=O)CC3)CC2)cc1 (single isomer, unassigned) [Compound I-345, (S)-3-(5-(4-((1-(4-((3*S,4*S)-7-hydroxy-3-methyl-3-phenylisochroman-4-yl)phenyl)piperidin-4-yl)methyl)piperazin-1-yl)-1-oxoisoindolin-2-yl)piperidine-2,6-dione] |
| 0.27 nM | Cc1ccc([C@H]2OCc3cc(O)ccc3[C@H]2c2ccc(N3CCC(CN4CCN(c5ccc6c(c5)CN([C@H]5CCC(=O)NC5=O)C6=O)CC4)CC3)cc2)cc1F (single isomer, unassigned) [Compound I-355] |
| 54 nM | Cc1ccc([C@@H]2OCc3cc(O)ccc3[C@@H]2c2ccc(N3CCC(CN4CCN(c5ccc6c(c5)CN([C@H]5CCC(=O)NC5=O)C6=O)CC4)CC3)cc2)cc1F (single isomer, unassigned) [Compound I-356] |
| 0.51 nM | Cc1ccc(F)cc1[C@H]1OCc2cc(O)ccc2[C@H]1c1ccc(N2CCC(CN3CCN(c4ccc5c(c4)CN([C@H]4CCC(=O)NC4=O)C5=O)CC3)CC2)cc1 (single isomer, unassigned) [Compound I-357] |
| 0.16 nM | O=C1CC[C@H](N2Cc3cc(N4CCN(CC5CCN(c6ccc([C@H]7c8ccc(O)cc8CO[C@@H]7c7ccc(O)cc7)cc6)CC5)CC4)ccc3C2=O)C(=O)N1 (single isomer, unassigned) [Compound I-359, (S)-3-(5-(4-((1-(4-((3R*,4R*)-7-hydroxy-3-(4-hydroxyphenyl)isochroman-4-yl)phenyl)piperidin-4-yl)methyl)piperazin-1-yl)-1-oxoisoindolin-2-yl)piperidine-2,6-dione] |
| 0.38 nM | O=C1CC[C@H](N2Cc3cc(N4CCN(CC5CCN(c6ccc([C@H]7c8ccc(O)cc8CO[C@H]7c7ccc(O)cc7)cc6)CC5)CC4)ccc3C2=O)C(=O)N1 (single isomer, unassigned) [Compound I-360] |
| 0.17 nM | O=C1CC[C@H](N2Cc3cc(N4CCN(CC5CCN(c6ccc([C@@H]7c8ccc(O)cc8CO[C@@H]7c7ccc8c(c7)CC8)cc6)CC5)CC4)ccc3C2=O)C(=O)N1 (single isomer, unassigned) [Compound I-363] |
| ≥ 10000 nM | O=C1CC[C@H](N2Cc3cc(N4CCN(CC5CCN(c6ccc([C@H]7c8ccc(O)cc8CO[C@H]7c7ccc8c(c7)CC8)cc6)CC5)CC4)ccc3C2=O)C(=O)N1 (single isomer, unassigned) [Compound I-364] |
| 0.24 nM | C[C@H]1O[C@H](c2ccccc2)[C@H](c2ccc(N3CCC(CN4CCN(c5ccc6c(c5)CN([C@H]5CCC(=O)NC5=O)C6=O)CC4)CC3)cc2)c2ccc(O)cc21 (single isomer, unassigned) [Compound I-367] |
| 3 nM | C[C@@H]1O[C@@H](c2ccccc2)[C@@H](c2ccc(N3CCC(CN4CCN(c5ccc6c(c5)CN([C@H]5CCC(=O)NC5=O)C6=O)CC4)CC3)cc2)c2ccc(O)cc21 (single isomer, unassigned) [Compound I-368] |
| 0.37 nM | Cc1c(F)cccc1[C@H]1OCc2cc(O)ccc2[C@H]1c1ccc(N2CCC(CN3CCN(c4ccc5c(c4)CN([C@H]4CCC(=O)NC4=O)C5=O)CC3)CC2)cc1 (single isomer, unassigned) [Compound I-379] |
| 77 nM | Cc1c(F)cccc1[C@@H]1OCc2cc(O)ccc2[C@@H]1c1ccc(N2CCC(CN3CCN(c4ccc5c(c4)CN([C@H]4CCC(=O)NC4=O)C5=O)CC3)CC2)cc1 (single isomer, unassigned) [Compound I-380] |
| 0.16 nM | O=C1CC[C@H](N2Cc3cc(N4CCN(CC5CCN(c6ccc([C@@H]7c8ccc(O)cc8CO[C@@H]7c7ccccc7)cc6F)CC5)CC4)ccc3C2=O)C(=O)N1 (single isomer, unassigned) [Compound I-381] |
| 2 nM | O=C1CC[C@H](N2Cc3cc(N4CCN(CC5CCN(c6ccc([C@H]7c8ccc(O)cc8CO[C@H]7c7ccccc7)cc6F)CC5)CC4)ccc3C2=O)C(=O)N1 (single isomer, unassigned) [Compound I-382] |
| 0.16 nM | Cn1c(=O)n([C@H]2CCC(=O)NC2=O)c2ccc(N3CCN(CC4CCN(c5ccc([C@@H]6c7ccc(O)cc7CO[C@@H]6c6ccccc6)cc5)CC4)CC3)cc21 (single isomer, unassigned) [Compound I-387] |
| 40 nM | Cn1c(=O)n([C@@H]2CCC(=O)NC2=O)c2ccc(N3CCN(CC4CCN(c5ccc([C@@H]6c7ccc(O)cc7CO[C@@H]6c6ccccc6)cc5)CC4)CC3)cc21 (single isomer, unassigned) [Compound I-388] |
| 0.28 nM | O=C1CC[C@H](c2ccc(N3CCC4(CCN(CC5CCN(c6ccc([C@@H]7c8ccc(O)cc8CO[C@@H]7c7ccccc7)cc6)CC5)C4)CC3)cc2)C(=O)N1 (single isomer, unassigned) [Compound I-389] |

| DC50 | Compound |
| --- | --- |
| 22 nM | O=C1CC[C@@H](c2ccc(N3CCC4(CCN(CC5CCN(c6ccc([C@@H]7c8ccc(O)cc8CO[C@@H]7c7ccccc7)cc6)CC5)C4)CC3)cc2)C(=O)N1 (single isomer, unassigned) [Compound I-390] |
| 0.39 nM | Cn1nc([C@H]2CCC(=O)NC2=O)c2ccc(N3CCN(CC4CCN(c5ccc([C@@H]6c7ccc(O)cc7CO[C@@H]6c6ccccc6)cc5)CC4)CC3)cc21 (single isomer, unassigned) [Compound I-394] |
| 0.28 nM | Cn1nc([C@@H]2CCC(=O)NC2=O)c2ccc(N3CCN(CC4CCN(c5ccc([C@@H]6c7ccc(O)cc7CO[C@@H]6c6ccccc6)cc5)CC4)CC3)cc21 (single isomer, unassigned) [Compound I-395] |
| 0.19 nM | O=C1CC[C@H](N2Cc3cc(N4CCN(CC5CCN(c6ccc([C@@H]7c8ccc(O)cc8CC[C@@H]7C7=CCCCC7)cc6)CC5)CC4)ccc3C2=O)C(=O)N1 (single isomer, unassigned) [Compound I-407] |
| ≥ 10000 nM | O=C1CC[C@H](N2Cc3cc(N4CCC(CN5CCC(n6cc([C@@H]7c8ccc(O)cc8CC[C@@H]7c7ccccc7)cn6)CC5)CC4)ccc3C2=O)C(=O)N1 (single isomer, unassigned) [Compound I-409] |
| ≥ 10000 nM | O=C1CC[C@H](N2Cc3cc(N4CCN(CC5CCN(c6ccc([C@@H]7c8ccc(O)cc8CC[C@@H]7c7cccc8c7CCC8)cc6)CC5)CC4)ccc3C2=O)C(=O)N1 (single isomer, unassigned) [Compound I-410] |
| 1 nM | O=C1CC[C@H](N2Cc3cc(N4CCN(CC5CCN(c6ccc([C@H]7c8ccc(O)cc8CC[C@H]7c7cccc8c7CCC8)cc6)CC5)CC4)ccc3C2=O)C(=O)N1 (single isomer, unassigned) [Compound I-411] |
| 332 nM | O=C1CC[C@H](N2Cc3cc(N4CCN(CC5CCN(c6ccc([C@@H]7c8ccc(O)cc8CC[C@@H]7c7ccc8c(c7)CCC8)cc6)CC5)CC4)ccc3C2=O)C(=O)N1 (single isomer, unassigned) [Compound I-412] |
| 0.27 nM | O=C1CC[C@H](N2Cc3cc(N4CCN(CC5CCN(c6ccc([C@H]7c8ccc(O)cc8CC[C@H]7c7ccc8c(c7)CCC8)cc6)CC5)CC4)ccc3C2=O)C(=O)N1 (single isomer, unassigned) [Compound I-413] |
| 0.37 nM | Cc1cc([C@H]2CCc3cc(O)ccc3[C@H]2c2ccc(N3CCC(CN4CCN(c5ccc6c(c5)CN([C@H]5CCC(=O)NC5=O)C6=O)CC4)CC3)cc2)n(C)n1 (single isomer, unassigned) [Compound I-414] |
| 0.02 nM | Cc1cc([C@@H]2CCc3cc(O)ccc3[C@@H]2c2ccc(N3CCC(CN4CCN(c5ccc6c(c5)CN([C@H]5CCC(=O)NC5=O)C6=O)CC4)CC3)cc2)n(C)n1 (single isomer, unassigned) [Compound I-415] |
| 0.44 nM | O=C1CC[C@H](N2Cc3cc(N4CCN(CC5CCN(c6ccc([C@H]7c8ccc(O)cc8CC[C@H]7C7=CCCCC7)cc6)CC5)CC4)ccc3C2=O)C(=O)N1 (single isomer, unassigned) [Compound I-416] |
| 0.33 nM | C[C@]1(C2CCCCC2)OCc2cc(O)ccc2[C@H]1c1ccc(N2CCC(CN3CCN(c4ccc5c(c4)CN([C@H]4CCC(=O)NC4=O)C5=O)CC3)CC2)cc1 (single isomer, unassigned) [Compound I-418] |
| 2 nM | C[C@@H]1C[C@H](c2ccccc2)[C@H](c2ccc(N3CCC(CN4CCN(c5ccc6c(c5)CN([C@H]5CCC(=O)NC5=O)C6=O)CC4)CC3)cc2)c2ccc(O)cc21 (single isomer, unassigned) [Compound I-419] |
| 2 nM | C[C@H]1C[C@H](c2ccccc2)[C@H](c2ccc(N3CCC(CN4CCN(c5ccc6c(c5)CN([C@H]5CCC(=O)NC5=O)C6=O)CC4)CC3)cc2)c2ccc(O)cc21 (single isomer, unassigned) [Compound I-420] |
| 0.77 nM | O=C1CCC(c2ccc(N3CCC4(CCN(CC5CCN(c6ccc([C@@H]7c8ccc(O)cc8CC[C@@H]7c7ccccc7)cc6)CC5)C4)CC3)cc2)C(=O)N1 (single isomer, unassigned) [Compound I-421] |
